Experimental data published in patent publication US20020183256A1, “Cytostatic-integrin conjugates having specifically cleavable linking units” (priority 2000, published 2002).
Like-named read-outs stand apart in the source and are kept apart here. *1 amine or outer side, *2 acyl side, *3 side chain or, on linkers, in order; H or OH if unused. Where a SMILES comes first, the peptide text is derived from it. [ ]: non-standard residue; d: D form. The star is where a group is joined. ξ: configuration not given here. X6 = O=C(O)CC(NS(=O)(=O)c1ccc(-c2cccc(NC(=O)Nc3nc4ccccc4[nH]3)c2)cc1)c1cccc(N*)c1; Camptothecin(20R,20-O) = CC[C@]1(O*)C(=O)OCc2c1cc1n(c2=O)Cc2cc3ccccc3nc2-1; X1 = CCCNC(=O)Nc1cccc(S(=O)(=O)Nc2cccc(C(CC(=O)O)N*)c2)c1; NH(1,4-C6H4)NHCS = S=C(Nc1ccc(N[*:1])cc1)[*:2]; ξH = NC(Cc1c[nH]cn1)C(=O)O; CO = O=C([*:1])[*:2]

How the values were obtained:
[1] = test system: HT29; assay: Growth inhibition test (MTT), cytotoxic action on tumour cell lines; type: cell-based, human
Procedure: (§1) The human large intestine cell lines SW 480 and HT29 (ATCC No. CCL 228 and HTB38 and the mouse melanoma cell line B16F10 (CRL 6475) were grown to confluence in Roux dishes in RPMI 1640 medium with addition of 10% FCS. They were then trypsinized and taken up in RPMI plus 10% FCS to a cell count of 50,000 cells or, for B16F10, 20,000 cells per ml. 100 μl of cell suspension/well were added to a 96 microwell plate and incubated at 37° C. for 1 day in a CO2 incubator. A further 100 μl of RPMI medium and 1 μl of DMSO were then added with the test substances. The growth was checked after day 6. For this, 25 μl of MTT solution (3-(4,5-dimethylthiazol-2-yl)-2,5-diphenyltetrazolium bromide) was added to each well at a starting concentration of 5 mg/ml of H2O. The plate was incubated at 37° C. for 5 hours in a CO2 incubator. The medium was then aspirated and 100 μl of i-propanol/well were added. After shaking with 100 μl of H2O for 30 min, the extinction was measured at 595 nm using a Multiplate Reader (BIO-RAD) 3550-UV).
(§2) The cytostatic action is indicated in Table 2 as an IC50 value, in each case for the individual cell lines.

[2] = test system: SW 480; assay: as above; type: cell-based, human
Procedure: as §1, §2

[3] = test system: B16F10; assay: as above; type: cell-based, mouse
Procedure: as §1, §2

[4] = target: T1, αvβ3 receptor (Homo sapiens, UniProt P05106+P06756); assay: αvβ3 binding test (echistatin displacement, WGA SPA beads); settings: IC50 values of the binding to the αvβ3 receptor, αvβ3 from human A375 cells
T1 construct: αvβ3 from human A375 cells was purified; endogenous in cells; host or cells: human A375 cells (receptor purified from the cells, analogous to Wong et al. 1996)
Procedure: αvβ3 from human A375 cells was purified analogously to a procedure which was described by Wong et al. (Molecular Pharmacology, 50, 529-537 (1996)). In each case, 10 μl of αvβ3 (5 ng) in TBS pH 7.6, 2 mM CaCl2, 1 mM MgCl2, 1% n-octylglucopyranoside (Sigma); 10 μl of test substance in TBS pH 7.6, 0.1% DMSO and 45 μl of TBS pH 7.6, 2 mM CaCl2, 1 mM MgCl2, 1 mM MnCl2 were incubated at room temperature for 1 h. In each case, 25 μl of WGA SPA beads (Amersham, 4 mg/ml) and 10 μl of echistatin (0.1 μCi, Amersham, chloramine-T labelled) were then added. After 16 hours at room temperature, the samples were measured in a scintillation measuring apparatus (Wallac 1450).

[5] = HT29, MTT after day 6, read-out: IC50 values of the cytotoxic action on tumour cell lines, HT29
[6] = SW480, MTT after day 6, read-out: IC50 values of the cytotoxic action on tumour cell lines, SW480
[7] = B16F10, MTT after day 6, read-out: IC50 values of the cytotoxic action on tumour cell lines, B16F10

T1 sequence (P06756 31-889 limits assumed): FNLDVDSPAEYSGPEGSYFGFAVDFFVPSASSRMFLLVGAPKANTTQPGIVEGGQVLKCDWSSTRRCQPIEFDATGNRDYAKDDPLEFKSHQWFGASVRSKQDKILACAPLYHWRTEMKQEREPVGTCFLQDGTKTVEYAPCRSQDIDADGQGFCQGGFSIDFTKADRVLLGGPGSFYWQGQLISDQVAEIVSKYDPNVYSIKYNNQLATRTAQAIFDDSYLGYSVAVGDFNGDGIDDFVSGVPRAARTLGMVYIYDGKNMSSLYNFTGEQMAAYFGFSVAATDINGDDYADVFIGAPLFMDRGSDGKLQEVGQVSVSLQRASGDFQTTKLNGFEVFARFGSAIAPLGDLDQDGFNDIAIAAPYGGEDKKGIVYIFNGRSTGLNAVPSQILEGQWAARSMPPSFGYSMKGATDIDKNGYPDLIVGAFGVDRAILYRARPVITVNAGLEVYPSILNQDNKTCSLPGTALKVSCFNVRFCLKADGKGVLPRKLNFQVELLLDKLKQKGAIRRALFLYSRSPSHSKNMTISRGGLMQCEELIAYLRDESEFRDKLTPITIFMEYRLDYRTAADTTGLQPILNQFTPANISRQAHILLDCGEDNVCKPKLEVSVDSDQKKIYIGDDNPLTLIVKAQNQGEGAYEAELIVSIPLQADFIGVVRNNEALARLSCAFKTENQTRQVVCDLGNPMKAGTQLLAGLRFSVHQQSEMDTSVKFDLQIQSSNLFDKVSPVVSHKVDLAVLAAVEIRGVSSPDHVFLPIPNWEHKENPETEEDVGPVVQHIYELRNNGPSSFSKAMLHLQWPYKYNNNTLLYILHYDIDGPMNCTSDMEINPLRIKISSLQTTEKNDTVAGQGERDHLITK
T1 sequence (P06756 891-1048 partner limits assumed): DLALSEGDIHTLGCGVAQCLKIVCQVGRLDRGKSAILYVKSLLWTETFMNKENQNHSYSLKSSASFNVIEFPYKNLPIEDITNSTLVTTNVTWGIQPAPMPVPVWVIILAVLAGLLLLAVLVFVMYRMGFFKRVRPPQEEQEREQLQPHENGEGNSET
T1 sequence (P05106 27-788): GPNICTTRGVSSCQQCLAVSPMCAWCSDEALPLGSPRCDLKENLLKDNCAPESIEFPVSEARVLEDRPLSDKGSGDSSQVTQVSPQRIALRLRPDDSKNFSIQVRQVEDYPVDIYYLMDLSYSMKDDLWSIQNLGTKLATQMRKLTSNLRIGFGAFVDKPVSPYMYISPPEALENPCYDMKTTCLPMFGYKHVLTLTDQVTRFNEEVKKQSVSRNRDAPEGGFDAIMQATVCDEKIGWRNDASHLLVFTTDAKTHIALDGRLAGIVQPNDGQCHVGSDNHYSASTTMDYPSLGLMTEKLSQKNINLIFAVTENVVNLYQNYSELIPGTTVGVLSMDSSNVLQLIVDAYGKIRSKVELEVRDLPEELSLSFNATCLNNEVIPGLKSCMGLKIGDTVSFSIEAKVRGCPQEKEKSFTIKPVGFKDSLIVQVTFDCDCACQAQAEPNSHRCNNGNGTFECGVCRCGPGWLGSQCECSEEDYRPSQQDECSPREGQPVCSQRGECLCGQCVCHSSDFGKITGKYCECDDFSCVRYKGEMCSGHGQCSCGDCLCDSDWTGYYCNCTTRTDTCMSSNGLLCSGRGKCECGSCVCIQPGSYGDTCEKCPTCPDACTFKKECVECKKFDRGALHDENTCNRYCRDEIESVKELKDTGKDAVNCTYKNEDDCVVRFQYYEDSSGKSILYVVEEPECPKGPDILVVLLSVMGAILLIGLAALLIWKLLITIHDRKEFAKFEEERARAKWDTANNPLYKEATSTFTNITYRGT

Structure (SMILES)	IC50 [1, 5] [nM]	IC50 [2, 6] [nM]	IC50 [3, 7] [nM]	IC50 [4] [nM]	IC50 ([1]; human, 6 day) [nM]	IC50 ([2]; human, 6 day) [nM]	IC50 ([3]; mouse, 6 day) [nM]
CCCNC(=O)Nc1cccc(S(=O)(=O)Nc2cccc(C(CC(=O)O)NC(=O)Nc3ccc(NC(=S)N4CCC[C@@H]4C(=O)N[C@@H](CC(C)C)C(=O)NCC(=O)N[C@H](CCC)C(=O)N[C@H](CC(N)=O)C(=O)N[C@@H](C(=O)O[C@@]4(CC)C(=O)OCc5c4cc4n(c5=O)Cc5cc6ccccc6nc5-4)C(C)C)cc3)c2)c1 (single isomer, unassigned) [Example 21]	30	60	200				
CCCCNC(=O)Nc1cccc(S(=O)(=O)Nc2cccc(C(CC(=O)O)NC(=O)Nc3ccc(NC(=S)NCC(=O)N4CCC[C@@H]4C(=O)N[C@@H](CC(C)C)C(=O)NCC(=O)N[C@H](CC(C)C)C(=O)N[C@H](CC(N)=O)C(=O)N[C@@H](C(=O)O[C@@]4(CC)C(=O)OCc5c4cc4n(c5=O)Cc5cc6ccccc6nc5-4)C(C)C)cc3)c2)c1 (single isomer, unassigned) [Example 22]	15	30	90				
CCCNC(=O)Nc1cccc(S(=O)(=O)Nc2cccc(C(CC(=O)O)NC(=O)Nc3ccc(NC(=S)N4CCC[C@@H]4C(=O)N[C@@H](CC(C)C)C(=O)NCC(=O)N[C@H](Cc4c[nH]cn4)C(=O)N[C@@H](C(=O)O[C@@]4(CC)C(=O)OCc5c4cc4n(c5=O)Cc5cc6ccccc6nc5-4)C(C)C)cc3)c2)c1 (single isomer, unassigned) [Example 26]	50	90	300				
CCCNC(=O)Nc1cccc(S(=O)(=O)Nc2cccc(C(CC(=O)O)NC(=O)Nc3ccc(NC(=S)N4CCC[C@@H]4C(=O)N[C@@H](CC(C)C)C(=O)NCC(=O)N[C@H](CC(C)C)C(=O)N[C@@H](C(=O)O[C@@]4(CC)C(=O)OCc5c4cc4n(c5=O)Cc5cc6ccccc6nc5-4)C(C)C)cc3)c2)c1 (single isomer, unassigned) [Example 27]	150	200	800				
CCCNC(=O)Nc1cccc(S(=O)(=O)Nc2cccc(C(CC(=O)O)NC(=O)Nc3ccc(NC(=S)N4CCC[C@@H]4C(=O)N4CCC[C@@H]4C(=O)N[C@@H](CC(C)C)C(=O)NCC(=O)N[C@H](CC(C)C)C(=O)N[C@H](CC(N)=O)C(=O)N[C@@H](C(=O)O[C@@]4(CC)C(=O)OCc5c4cc4n(c5=O)Cc5cc6ccccc6nc5-4)C(C)C)cc3)c2)c1 (single isomer, unassigned) [Example 28]	30	30	250				
CCCNC(=O)Nc1cccc(S(=O)(=O)Nc2cccc(C(CC(=O)O)NC(=O)Nc3ccc(NC(=S)NCC(=O)N4CCC[C@@H]4C(=O)N[C@@H](CC(C)C)C(=O)NCC(=O)N[C@H](CC(C)C)C(=O)N[C@H](Cc4c[nH]cn4)C(=O)N[C@@H](C(=O)O[C@@]4(CC)C(=O)OCc5c4cc4n(c5=O)Cc5cc6ccccc6nc5-4)C(C)C)cc3)c2)c1 (single isomer, unassigned) [Example 29]	80	100	400				
CC[C@]1(OC(=O)[C@H](NC(=O)[C@@H](Cc2c[nH]cn2)NC(=O)[C@@H](CC(C)C)NC(=O)CNC(=O)[C@H](CC(C)C)NC(=O)[C@H]2CCCN2C(=O)Nc2cccc(C(CC(=O)O)NS(=O)(=O)c3ccc(-c4cccc(NC(=O)Nc5nc6ccccc6[nH]5)c4)cc3)c2)C(C)C)C(=O)OCc2c1cc1n(c2=O)Cc2cc3ccccc3nc2-1 (stereo partly drawn) [Example 7] ({X6-CO}-[dP]LG[dL][dH][dV]-{Camptothecin(20R,20-O)})	150	150	600	700			
CCCNC(=O)Nc1cccc(S(=O)(=O)Nc2cccc(C(CC(=O)O)NC(=O)Nc3ccc(NC(=S)N4CCC[C@@H]4C(=O)NCC(=O)NCC(=O)N[C@H](CC(C)C)C(=O)N[C@H](CC(N)=O)C(=O)N[C@@H](C(=O)O[C@@]4(CC)C(=O)OCc5c4cc4n(c5=O)Cc5cc6ccccc6nc5-4)C(C)C)cc3)c2)c1 (stereo partly drawn) [Example 23] ({X1-CO}-[NH(1,4-C6H4)NHCS][dP]GG[dL][dN][dV]-{Camptothecin(20R,20-O)})	150	400	1500				
CCCNC(=O)Nc1cccc(S(=O)(=O)Nc2cccc(C(CC(=O)O)NC(=O)Nc3ccc(NC(=S)N4CCC[C@@H]4C(=O)NC(Cc4c[nH]cn4)C(=O)NCC(=O)N[C@H](CC(C)C)C(=O)N[C@H](CC(N)=O)C(=O)N[C@@H](C(=O)O[C@@]4(CC)C(=O)OCc5c4cc4n(c5=O)Cc5cc6ccccc6nc5-4)C(C)C)cc3)c2)c1 (stereo partly drawn) [Example 24] ({X1-CO}-[NH(1,4-C6H4)NHCS][dP][ξH]G[dL][dN][dV]-{Camptothecin(20R,20-O)})	150	400	900				
CCCNC(=O)Nc1cccc(S(=O)(=O)Nc2cccc(C(CC(=O)O)NC(=O)Nc3ccc(NC(=S)N4CCC[C@H]4C(=O)N[C@@H](CC(C)C)C(=O)NCC(=O)N[C@@H](CC(C)C)C(=O)N[C@@H](C)C(=O)N[C@H](C(=O)O[C@]4(CC)C(=O)OCc5c4cc4n(c5=O)Cc5cc6ccccc6nc5-4)C(C)C)cc3)c2)c1 (stereo partly shown) [Example 30]	400	500					
CCCNC(=O)Nc1cccc(S(=O)(=O)Nc2cccc(C(CC(=O)O)NC(=O)Nc3ccc(NC(=S)N4CCC[C@H]4C(=O)N[C@@H](CC(C)C)C(=O)NCC(=O)N[C@@H](CC(C)C)C(=O)N[C@H](C)C(=O)N[C@H](C(=O)O[C@]4(CC)C(=O)OCc5c4cc4n(c5=O)Cc5cc6ccccc6nc5-4)C(C)C)cc3)c2)c1 (stereo partly shown) [Example 31]	250	300					
CCCNC(=O)Nc1cccc(S(=O)(=O)Nc2cccc(C(CC(=O)O)NC(=O)Nc3ccc(NC(=S)N4CCC[C@H]4C(=O)N[C@@H](CC(C)C)C(=O)NCC(=O)N[C@@H](CC(C)C)C(=O)N[C@H](C(=O)N[C@H](C(=O)O[C@]4(CC)C(=O)OCc5c4cc4n(c5=O)Cc5cc6ccccc6nc5-4)C(C)C)C(C)C)cc3)c2)c1 (stereo partly shown) [Example 32]	100	120	200				
CCCNC(=O)Nc1cccc(S(=O)(=O)Nc2cccc(C(CC(=O)O)NC(=O)Nc3ccc(NC(=S)N4CCC[C@H]4C(=O)N[C@@H](CC(C)C)C(=O)NCC(=O)N[C@@H](CC(C)C)C(=O)N[C@@H](Cc4ccccc4)C(=O)N[C@H](C(=O)O[C@]4(CC)C(=O)OCc5c4cc4n(c5=O)Cc5cc6ccccc6nc5-4)C(C)C)cc3)c2)c1 (stereo partly shown) [Example 33]	300	400	1000				
CCCNC(=O)Nc1cccc(S(=O)(=O)Nc2cccc(C(CC(=O)O)NC(=O)Nc3ccc(NC(=S)N4CCC[C@H]4C(=O)N[C@@H](CC(C)C)C(=O)NCC(=O)N[C@@H](CC(C)C)C(=O)N[C@@H](CO)C(=O)N[C@H](C(=O)O[C@]4(CC)C(=O)OCc5c4cc4n(c5=O)Cc5cc6ccccc6nc5-4)C(C)C)cc3)c2)c1 (stereo partly shown) [Example 34]	50	100	800				
CCCNC(=O)Nc1cccc(S(=O)(=O)Nc2cccc(C(CC(=O)O)NC(=O)Nc3ccc(NC(=S)N4CCC[C@H]4C(=O)N[C@@H](CC(C)C)C(=O)NCC(=O)N[C@@H](CC(C)C)C(=O)N[C@H](C(=O)N[C@H](C(=O)O[C@]4(CC)C(=O)OCc5c4cc4n(c5=O)Cc5cc6ccccc6nc5-4)C(C)C)C(C)CC)cc3)c2)c1 (stereo partly shown) [Example 35]	150	200	800				
CCCNC(=O)Nc1cccc(S(=O)(=O)Nc2cccc(C(CC(=O)O)NC(=O)Nc3ccc(NC(=S)N4CCC[C@H]4C(=O)N[C@@H](CC(C)C)C(=O)NCC(=O)N[C@@H](CC(C)C)C(=O)N[C@@H](CCC(=O)O)C(=O)N[C@H](C(=O)O[C@]4(CC)C(=O)OCc5c4cc4n(c5=O)Cc5cc6ccccc6nc5-4)C(C)C)cc3)c2)c1 (stereo partly shown) [Example 36]					100	150	300
CCCNC(=O)Nc1cccc(S(=O)(=O)Nc2cccc(C(CC(=O)O)NC(=O)Nc3ccc(NC(=S)N4CCC[C@H]4C(=O)N[C@@H](CC(C)C)C(=O)NCC(=O)N[C@@H](CC(C)C)C(=O)NCC(=O)N[C@H](C(=O)O[C@]4(CC)C(=O)OCc5c4cc4n(c5=O)Cc5cc6ccccc6nc5-4)C(C)C)cc3)c2)c1 (stereo partly shown) [Example 37]	300	500					
CCCNC(=O)Nc1cccc(S(=O)(=O)Nc2cccc(C(CC(=O)O)NC(=O)Nc3ccc(NC(=S)N4CCC[C@H]4C(=O)N[C@@H](CC(C)C)C(=O)NCC(=O)N[C@@H](CC(C)C)C(=O)N4CCC[C@H]4C(=O)N[C@H](C(=O)O[C@]4(CC)C(=O)OCc5c4cc4n(c5=O)Cc5cc6ccccc6nc5-4)C(C)C)cc3)c2)c1 (stereo partly shown) [Example 38]	150	200	1000				
